The record followed here is patent US10864196B2, “Modulators of the integrated stress pathway” (Calico Life Sciences LLC, priority 2016, dated 2020).

A value given as a limit tells only on which side of the number the result lay.

The assay has as its system HEK293T cells carrying the ATF4 luciferase reporter. As to the kind of experiment: ATF4-Luc assay (in vitro model of VWMD). Type of assay: cell-based. Particulars: Homo sapiens, HEK-293T, 1 μg/mL tunicamycin, 7 hours, One Glo luminescence. Here is the method:
In order to test exemplary compounds of the invention in a cellular context, a stable VWMD cell line was first constructed. The ATF4 reporter was prepared by fusing the human full-length ATF4 5′-UTR (NCBI Accession No. BC022088.2) in front of the firefly luciferase (FLuc) coding sequence lacking the initiator methionine as described in Sidrauski et al (eLife 2013). The construct was used to produce recombinant retroviruses using standard methods and the resulting viral supernatant was used to transduce HEK293T cells, which were then subsequently selected with puromycin to generate a stable cell line.
HEK293T cells carrying the ATF4 luciferase reporter were plated on polylysine coated 384-well plates (Greiner Bio-one) at 30,000 cells per well. Cells were treated the next day with 1 μg/mL tunicamycin and 200 nM of a compound of Formula (I) for 7 hours. Luminescence was measured using One Glo (Promega) as specified by the manufacturer. Cells were maintained in DMEM with L-glutamine supplemented with 10% heat-inactivated FBS (Gibco) and Antibiotic-Antimycotic solution (Gibco).
Table 2 below summarizes the EC50 data obtained using the ATF4-Luc assay for exemplary compounds of the invention.

In general, EC50 refers to the concentration at which the effect is half-maximal. Consider `O=C(COc1ccc(Cl)c(F)c1)NC12CC(c3nnc(COc4cncc(F)c4)o3)(C1)C2` [Compound 140, 2-(4-chloro-3-fluorophenoxy)-N-[3-(5-{[(5-fluoropyridin-3-yl)oxy]methyl}-1,3,4-oxadiazol-2-yl)bicyclo[1.1.1]pentan-1-yl]acetamide], for which the EC50 lay in the range of 0.05 to 0.25 µM.
On to `O=C(COc1ccc(Cl)cc1)NC12CC(c3nc(COc4ccc(Cl)cc4)no3)(C1)C2` [Compound 101, 2-(4-chlorophenoxy)-N-(3-{3-[(4-chlorophenoxy)methyl]-1,2,4-oxadiazol-5-yl}bicyclo[1.1.1]pentan-1-yl)acetamide], for which the EC50 is less than 0.05 µM.
For the molecule `COCc1nnc(C23CCC(NC(=O)COc4ccc(Cl)c(F)c4)(CC2)CC3O)o1` (stereo not drawn) [Compound 165, 2-(4-chloro-3-fluorophenoxy)-N-{3-hydroxy-4-[5-(methoxymethyl)-1,3,4-oxadiazol-2-yl]bicyclo[2.2.2]octan-1-yl}acetamide], the EC50 was 0.25 to 1 µM.
Consider `Cc1ccc(Oc2nnc(C34CC(NC(=O)COc5ccc(Cl)c(F)c5)(C3)C4)o2)cc1C` [Compound 130, 2-(4-chloro-3-fluorophenoxy)-N-{3-[5-(3,4-dimethylphenoxy)-1,3,4-oxadiazol-2-yl]bicyclo[1.1.1]pentan-1-yl}acetamide], for which the EC50 fell in the range of 0.05 to 0.25 µM.
As for `Cc1cc(COCC(=O)NC23CC(c4nc(COc5ccc(Cl)cc5)no4)(C2)C3)no1` [Compound 112, N-(3-{3-[(4-chlorophenoxy)methyl]-1,2,4-oxadiazol-5-yl}bicyclo[1.1.1]pentan-1-yl)-2-[(5-methyl-1,2-oxazol-3-yl)methoxy]acetamide], the figure is greater than 2 µM.
As for `O=C(COc1ccc(Cl)c(F)c1)NC12CC(c3nnc(Oc4cccc(C(F)(F)F)c4)o3)(C1)C2` [Compound 139, 2-(4-chloro-3-fluorophenoxy)-N-(3-{5-[3-(trifluoromethyl)phenoxy]-1,3,4-oxadiazol-2-yl}bicyclo[1.1.1]pentan-1-yl)acetamide], the figure is less than 0.05 µM; as for `COc1cccc(Oc2nnc(C34CC(NC(=O)COc5ccc(Cl)c(F)c5)(C3)C4)o2)c1` [Compound 136, 2-(4-chloro-3-fluorophenoxy)-N-{3-[5-(3-methoxyphenoxy)-1,3,4-oxadiazol-2-yl]bicyclo[1.1.1]pentan-1-yl}acetamide], 0.05 to 0.25 µM; as for `Cc1cc(OCc2nnc(C34CC(NC(=O)COc5ccc(Cl)c(F)c5)(C3)C4)o2)cnc1C#N` [Compound 156, 2-(4-chloro-3-fluorophenoxy)-N-[3-(5-{[(6-cyano-5-methylpyridin-3-yl)oxy]methyl}-1,3,4-oxadiazol-2-yl)bicyclo[1.1.1]pentan-1-yl]acetamide], 1 to 2 µM.
The result for `Cc1cc(OCC(=O)NC23CC(c4nc(COc5ccc(Cl)cc5)no4)(C2)C3)ccc1Cl` [Compound 104, 2-(4-chloro-3-methylphenoxy)-N-(3-{3-[(4-chlorophenoxy)methyl]-1,2,4-oxadiazol-5-yl}bicyclo[1.1.1]pentan-1-yl)acetamide] reads 0.25 to 1 µM.
Consider `COCc1nnc([C@]23CC[C@](NC(=O)COc4ccc(Cl)c(F)c4)(CC2)CC3=O)o1` [Compound 164, 2-(4-chloro-3-fluorophenoxy)-N-{4-[5-(methoxymethyl)-1,3,4-oxadiazol-2-yl]-3-oxobicyclo[2.2.2]octan-1-yl}acetamide], for which the concentration giving a half-maximal response (EC50) lay in the range of 0.25 to 1 µM.
The result for `O=C(COc1ccc(C(F)(F)F)nc1)NC12CC(c3nc(COc4ccc(Cl)cc4)no3)(C1)C2` [Compound 114, N-(3-{3-[(4-chlorophenoxy)methyl]-1,2,4-oxadiazol-5-yl}bicyclo[1.1.1]pentan-1-yl)-2-{[6-(trifluoromethyl)pyridin-3-yl]oxy}acetamide] reads 0.25 to 1 µM; that for `O=C(COc1ccc(Cl)c(F)c1)NC12CCC(c3nnc(Oc4ccc(Cl)c(F)c4)o3)(CC1)C(O)C2` (stereo not drawn) [Compound 170, 2-(4-chloro-3-fluorophenoxy)-N-{4-[5-(4-chloro-3-fluorophenoxy)-1,3,4-oxadiazol-2-yl]-3-hydroxybicyclo[2.2.2]octan-1-yl}acetamide], less than 0.05 µM; that for `Cc1cccc(Oc2nnc(C34CC(NC(=O)COc5ccc(Cl)c(F)c5)(C3)C4)o2)c1` [Compound 135, 2-(4-chloro-3-fluorophenoxy)-N-{3-[5-(3-methylphenoxy)-1,3,4-oxadiazol-2-yl]bicyclo[1.1.1]pentan-1-yl}acetamide], 0.05 to 0.25 µM.
`COc1ncc(OCc2nnc(C34CC(NC(=O)COc5ccc(Cl)c(F)c5)(C3)C4)o2)cc1C` [Compound 155, 2-(4-chloro-3-fluorophenoxy)-N-[3-(5-{[(6-methoxy-5-methylpyridin-3-yl)oxy]methyl}-1,3,4-oxadiazol-2-yl)bicyclo[1.1.1]pentan-1-yl]acetamide]: the EC50 was 0.25 to 1 µM.
The result for `O=C(COc1ccc(Cl)c(F)c1)NC12CCC(c3nc(COc4ccc(C(F)(F)F)nc4)no3)(CC1)C(O)C2` (stereo not drawn) [Compound 166, 2-(4-chloro-3-fluorophenoxy)-N-{3-hydroxy-4-[3-({[6-(trifluoromethyl)pyridin-3-yl]oxy}methyl)-1,2,4-oxadiazol-5-yl]bicyclo[2.2.2]octan-1-yl}acetamide] reads 0.25 to 1 µM; that for `O=C(COc1ccc(Cl)c(F)c1)NC12CC(c3nnc(COc4cnc5ccoc5c4)o3)(C1)C2` [Compound 152, 2-(4-chloro-3-fluorophenoxy)-N-[3-(5-{[(furo[3,2-b]pyridin-6-yl)oxy]methyl}-1,3,4-oxadiazol-2-yl)bicyclo[1.1.1]pentan-1-yl]acetamide], 1 to 2 µM.
The result for `O=C(COc1ccc(Cl)c(Cl)c1)NC12CC(c3nnc(COc4ccc(Cl)cc4)o3)(C1)C2` [Compound 109, N-(3-{5-[(4-chlorophenoxy)methyl]-1,3,4-oxadiazol-2-yl}bicyclo[1.1.1]pentan-1-yl)-2-(3,4-dichlorophenoxy)acetamide] reads less than 0.05 µM; that for `O=C(COc1ccc(Cl)c(F)c1)NC12CC(c3nnc(Oc4ccc(C(F)(F)F)nc4)o3)(C1)C2` [Compound 116, 2-(4-chloro-3-fluorophenoxy)-N-[3-(5-{[6-(trifluoromethyl)pyridin-3-yl]oxy}-1,3,4-oxadiazol-2-yl)bicyclo[1.1.1]pentan-1-yl]acetamide], 0.05 to 0.25 µM.
Turning to `O=C(COc1ccc(Cl)c(F)c1)NC12CC(c3nnc(COc4ccc(Cl)c(F)c4)o3)(C1)C2` [Compound 115, 2-(4-chloro-3-fluorophenoxy)-N-(3-{5-[(4-chloro-3-fluorophenoxy)methyl]-1,3,4-oxadiazol-2-yl}bicyclo[1.1.1]pentan-1-yl)acetamide], the 50% effective concentration (EC50) was less than 0.05 µM.
The result for `O=C(COc1ccc(Cl)c(F)c1)NC12CC(c3nc(COc4ccc(Cl)c(F)c4)c[nH]3)(C1)C2` [Compound 168, 2-(4-chloro-3-fluorophenoxy)-N-(3-{4-[(4-chloro-3-fluorophenoxy)methyl]-1H-imidazol-2-yl}bicyclo[1.1.1]pentan-1-yl)acetamide] reads less than 0.05 µM; that for `O=C(COc1ccc(Cl)c(F)c1)NC12CC(c3nc(COc4cncc(C(F)(F)F)c4)no3)(C1)C2` [Compound 159, 2-(4-chloro-3-fluorophenoxy)-N-{3-[3-({[5-(trifluoromethyl)pyridin-3-yl]oxy}methyl)-1,2,4-oxadiazol-5-yl]bicyclo[1.1.1]pentan-1-yl}acetamide], 0.05 to 0.25 µM.
As for `O=C(COc1ccc(Cl)c(F)c1)NC12CC(c3nnc(Oc4ccc(Cl)cc4)o3)(C1)C2` [Compound 128, 2-(4-chloro-3-fluorophenoxy)-N-{3-[5-(4-chlorophenoxy)-1,3,4-oxadiazol-2-yl]bicyclo[1.1.1]pentan-1-yl}acetamide], the figure is less than 0.05 µM; as for `Cc1ncc(OCc2nnc(C34CC(NC(=O)COc5ccc(Cl)c(F)c5)(C3)C4)o2)cc1Cl` [Compound 145, 2-(4-chloro-3-fluorophenoxy)-N-[3-(5-{[(5-chloro-6-methylpyridin-3-yl)oxy]methyl}-1,3,4-oxadiazol-2-yl)bicyclo[1.1.1]pentan-1-yl]acetamide], 0.05 to 0.25 µM.
Turning to `N#Cc1ccc(OCc2nnc(C34CC(NC(=O)COc5ccc(Cl)c(F)c5)(C3)C4)o2)cn1` [Compound 157, 2-(4-chloro-3-fluorophenoxy)-N-[3-(5-{[(6-cyanopyridin-3-yl)oxy]methyl}-1,3,4-oxadiazol-2-yl)bicyclo[1.1.1]pentan-1-yl]acetamide], the EC50 was in the range of 0.25 to 1 µM.
As for `O=C(COc1ccc(Cl)c(F)c1)NC12CCC(c3nc(COc4ccnc(C(F)(F)F)c4)no3)(CC1)C(O)C2` (stereo not drawn) [Compound 167, 2-(4-chloro-3-fluorophenoxy)-N-{3-hydroxy-4-[3-({[2-(trifluoromethyl)pyridin-4-yl]oxy}methyl)-1,2,4-oxadiazol-5-yl]bicyclo[2.2.2]octan-1-yl}acetamide], the figure is 0.05 to 0.25 µM; as for `O=C(COc1ccc(Cl)c(F)c1)NC12CC(c3nnc(Oc4ccccc4Cl)o3)(C1)C2` [Compound 127, 2-(4-chloro-3-fluorophenoxy)-N-{3-[5-(2-chlorophenoxy)-1,3,4-oxadiazol-2-yl]bicyclo[1.1.1]pentan-1-yl}acetamide], 0.25 to 1 µM.
As for `O=C(COc1ccc(Cl)c(F)c1)NC12CC(c3nnc(Oc4ccc(F)cc4)o3)(C1)C2` [Compound 126, 2-(4-chloro-3-fluorophenoxy)-N-{3-[5-(4-fluorophenoxy)-1,3,4-oxadiazol-2-yl]bicyclo[1.1.1]pentan-1-yl}acetamide], the figure is less than 0.05 µM.
